# Patent US20260132129A1 (Genesis Therapeutics, Inc., priority 2022, published 2026)
# Target: T1, PI3Kα H1047R (T47D cells) (Homo sapiens, UniProt P42336, H1047R)
# T1 construct: endogenous in cells; host or cells: T47D cells
# Assay: PI3Kα cellular assay: pAKT HTRF in T47D cells after EGF stimulation
# Assay type: cell-based
# Details: for IC50: T47D cells (PI3Kα H1047R), pAKT S473 HTRF
# How it was run: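 pAKT read by HTRF in lysates of EGF-stimulated (20 ng/mL, 10 min) T47D H1047R cells. Before stimulation, serum-starved cells (16 h) received compound for 1 h at 37 °C, dosed from 10,000 nM down to 0.5 nM in 3-fold steps.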
# [1] = 1 hr compound, 20 ng/ml EGF 10 min
# [2] = selectivity T47D (H1047R) over SKBR3 (WT), pAKT HTRF
# [3] = selectivity of T47D (H1047R) over SKBR3 (WT) pAKT IC50
# T1 sequence (P42336 whole entry H1047R): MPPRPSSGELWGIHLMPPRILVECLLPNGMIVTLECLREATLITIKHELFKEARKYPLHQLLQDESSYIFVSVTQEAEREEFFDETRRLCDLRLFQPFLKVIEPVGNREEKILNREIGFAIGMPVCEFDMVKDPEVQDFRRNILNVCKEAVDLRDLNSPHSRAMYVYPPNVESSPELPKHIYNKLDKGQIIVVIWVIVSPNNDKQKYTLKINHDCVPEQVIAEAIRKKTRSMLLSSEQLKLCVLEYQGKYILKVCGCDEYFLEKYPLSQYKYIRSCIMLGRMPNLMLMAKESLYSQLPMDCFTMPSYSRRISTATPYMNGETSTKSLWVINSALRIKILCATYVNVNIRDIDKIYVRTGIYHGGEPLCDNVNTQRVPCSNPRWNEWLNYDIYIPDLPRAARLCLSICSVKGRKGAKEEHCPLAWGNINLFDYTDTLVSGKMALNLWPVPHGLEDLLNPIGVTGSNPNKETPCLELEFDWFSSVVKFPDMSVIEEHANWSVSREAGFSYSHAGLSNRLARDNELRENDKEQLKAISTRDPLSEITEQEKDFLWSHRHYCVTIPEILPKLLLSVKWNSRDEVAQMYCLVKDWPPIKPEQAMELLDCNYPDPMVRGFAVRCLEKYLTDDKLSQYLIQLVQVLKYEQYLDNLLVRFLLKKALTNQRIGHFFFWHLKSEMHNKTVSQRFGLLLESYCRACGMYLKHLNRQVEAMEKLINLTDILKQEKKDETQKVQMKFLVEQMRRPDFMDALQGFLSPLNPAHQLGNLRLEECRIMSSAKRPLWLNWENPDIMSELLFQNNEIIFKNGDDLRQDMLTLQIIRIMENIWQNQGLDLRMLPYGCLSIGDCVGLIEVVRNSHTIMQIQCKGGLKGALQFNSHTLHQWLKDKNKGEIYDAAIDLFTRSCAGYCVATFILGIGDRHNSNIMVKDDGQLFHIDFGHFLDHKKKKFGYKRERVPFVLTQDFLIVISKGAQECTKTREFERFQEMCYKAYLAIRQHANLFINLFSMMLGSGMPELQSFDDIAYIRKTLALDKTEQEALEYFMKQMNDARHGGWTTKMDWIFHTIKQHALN
# T1 sequence (P27986 whole entry partner): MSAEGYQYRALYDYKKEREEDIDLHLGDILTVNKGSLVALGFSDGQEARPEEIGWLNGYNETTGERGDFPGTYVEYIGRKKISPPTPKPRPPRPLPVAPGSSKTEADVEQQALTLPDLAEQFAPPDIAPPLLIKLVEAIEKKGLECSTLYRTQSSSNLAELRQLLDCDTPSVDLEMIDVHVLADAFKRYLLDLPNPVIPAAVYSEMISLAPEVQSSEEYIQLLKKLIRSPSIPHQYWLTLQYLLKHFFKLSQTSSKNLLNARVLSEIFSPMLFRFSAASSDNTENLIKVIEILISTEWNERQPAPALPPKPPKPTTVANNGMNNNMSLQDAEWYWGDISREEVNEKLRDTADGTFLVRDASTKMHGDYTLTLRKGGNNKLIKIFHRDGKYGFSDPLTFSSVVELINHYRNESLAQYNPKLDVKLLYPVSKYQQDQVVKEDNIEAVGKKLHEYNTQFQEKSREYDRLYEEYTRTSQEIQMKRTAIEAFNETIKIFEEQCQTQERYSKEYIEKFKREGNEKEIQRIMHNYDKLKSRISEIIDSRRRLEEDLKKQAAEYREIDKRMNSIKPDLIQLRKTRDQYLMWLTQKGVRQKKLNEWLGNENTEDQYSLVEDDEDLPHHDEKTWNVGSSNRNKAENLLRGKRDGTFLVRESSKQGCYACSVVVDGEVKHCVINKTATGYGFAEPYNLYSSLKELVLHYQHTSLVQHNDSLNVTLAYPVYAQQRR
SMILES,IC50 [1] [µM],T47D pAKT S473 HTRF IC50 (H1047R): T47D (H1047R) selectivity over SKBR3 (WT) [2],IC50 (EGF stimulation) [µM],T47D pAKT S473 HTRF IC50 (H1047R): T47D (H1047R) selectivity over SKBR3 (WT) [3]
"Cc1cc(C(C)Nc2ccccc2C(N)=O)c2nc(-c3ccncc3)cc(=O)n2c1 (single isomer, unassigned) [Compound 439]",> 2,C (C denotes ≤5-fold),–,–
CCn1nc(N)c2cc(-c3cc(=O)n4cc(C)cc([C@@H](C)Nc5ccccc5C(=O)O)c4n3)ccc21 [Compound 722],–,–,< 0.1,A (A denotes >20-fold)
"Cc1cc([C@H](C)Nc2ccccc2C(N)=O)c2nc(-c3ccncc3)cc(=O)n2c1 (single isomer, unassigned) [Compound 440]",0.5 to 2,B (B denotes 20-fold≥value>5-fold),–,–
Cc1cc([C@H](C)Nc2ccccc2C(=O)O)c2nc(N3CCS(=O)(=O)CC3)cc(=O)n2c1 [Compound 139],> 2,C (C denotes ≤5-fold),–,–
COc1cc(-c2nc3c([C@@H](C)Nc4ccccc4C(=O)O)cc(C)cn3c(=O)c2C)cn2ncc(C#N)c12 [Compound 1291],–,A (A denotes >20-fold),0.1 to 0.5,–
Cc1cc(C(C)Nc2ccccc2C(=O)O)c2nc(N3CCN(CCC(N)=O)CC3)cc(=O)n2c1 (stereo not drawn) [Compound 530],> 2,C (C denotes ≤5-fold),–,–
CC(=O)N1CCC(c2ccc(-c3nc4c([C@@H](C)Nc5ccccc5C(=O)O)cc(C)cn4c(=O)c3C)cc2)CC1 [Compound 1289],–,A (A denotes >20-fold),0.1 to 0.5,–
Cc1cc([C@@H](C)Nc2ccccc2C(=O)O)c2nc(N3Cc4ccccc4[C@H]3C)cc(=O)n2c1 [Compound 655],–,–,> 2,C (C denotes ≤5-fold)
Cc1cc([C@@H](C)Nc2ccccc2C(=O)O)c2nc(-c3c(C)ccc4c3cnn4C)cc(=O)n2c1 [Compound 816],–,–,> 2,C (C denotes ≤5-fold)
Cc1cc([C@@H](C)Nc2ccccc2C(=O)O)c2nc(-c3cccc(F)c3)c(C)c(=O)n2c1 [Compound 1073],–,C (C denotes ≤5-fold),> 2,–
Cc1cc([C@H](C)Nc2ccccc2C(=O)O)c2nc(C3CCCOC3)c(C#N)c(=O)n2c1 (stereo partly drawn) [Compound 1364],–,C (C denotes ≤5-fold),> 2,–
Cc1cc(C(C)Nc2ccccc2C(=O)O)c2nc(N3Cc4ccccc4C3)c(C#N)c(=O)n2c1 (stereo not drawn) [Compound 1160],–,A (A denotes >20-fold),< 0.1,–
Cc1cc(C(C)Nc2cc(F)ccc2C(=O)O)c2nc(N3CCOCC3)cc(=O)n2c1 (stereo not drawn) [Compound 289],0.1 to 0.5,C (C denotes ≤5-fold),–,–
CNc1nn(C)c2ccc(-c3cc(=O)n4cc(C)cc([C@H](C)Nc5ccccc5C(=O)O)c4n3)cc12 [Compound 768],–,–,0.1 to 0.5,A (A denotes >20-fold)
Cc1cc([C@H](C)Nc2cccc(CO)c2C(=O)O)c2nc(-c3ccc4c(c3)c(C)nn4C)cc(=O)n2c1 [Compound 941],–,–,> 2,C (C denotes ≤5-fold)
Cc1cc([C@@H](C)Nc2ccccc2S(N)(=O)=O)c2nc(-c3ccnc(C4CC4)c3)c(C)c(=O)n2c1 [Compound 1095],–,C (C denotes ≤5-fold),> 2,–
Cc1cc(C(C)Nc2ccccc2C(=O)O)c2nc(-c3ccc4c(c3)C(C)NN4C)cc(=O)n2c1 (stereo not drawn) [Compound 757],–,–,> 2,C (C denotes ≤5-fold)
Cc1cc([C@@H](C)Nc2ccccc2C(=O)O)c2nc(-c3ccccc3)cc(=O)n2c1 [Compound 628],> 2,C (C denotes ≤5-fold),–,–
Cc1cc([C@@H](C)Nc2ccccc2C(=O)O)c2nc(N3CCC(C)(C)CC3)cc(=O)n2c1 [Compound 727],–,–,> 2,C (C denotes ≤5-fold)
CC(Nc1ccccc1C(=O)O)c1cc(C#N)cn2c(=O)cc(N3CCOCC3)nc12 (stereo not drawn) [Compound 273],> 2,C (C denotes ≤5-fold),–,–
"Cc1cc([C@H](C)Nc2ccccc2C(=O)O)c2nc(C3Cc4ccccc4C3)c(C3CC3)c(=O)n2c1 (single isomer, unassigned) [Compound 983]",–,–,0.5 to 2,B (B denotes 20-fold≥value>5-fold)
"Cc1cc([C@@H](C)Nc2ccccc2C(=O)O)c2nc(OC3CCOCC3)c(C)c(=O)n2c1 (single isomer, unassigned) [Compound 1370]",–,C (C denotes ≤5-fold),> 2,–

SMILES,IC50 [1] [µM],T47D pAKT S473 HTRF IC50 (H1047R): T47D (H1047R) selectivity over SKBR3 (WT) [2],IC50 (EGF stimulation) [µM],T47D pAKT S473 HTRF IC50 (H1047R): T47D (H1047R) selectivity over SKBR3 (WT) [3]
Cc1cc([C@H](C)Nc2ccccc2C(=O)O)c2nc(-c3ccc4c(c3)c(C)cn4C)cc(=O)n2c1 [Compound 798],–,–,< 0.1,A (A denotes >20-fold)
Cc1cc(C(C)Nc2ccccc2S(N)(=O)=O)c2nc(-c3cc(C)c4oc(=O)[nH]c4c3)cc(=O)n2c1 (stereo not drawn) [Compound 571],> 2,C (C denotes ≤5-fold),–,–
Cc1cc([C@@H](C)Nc2cccc(CO)c2C(=O)O)c2nc(-c3ccc4c(c3)c(C)nn4C)cc(=O)n2c1 [Compound 940],–,–,> 2,C (C denotes ≤5-fold)
Cc1cc([C@@H](C)Nc2ccccc2C(=O)O)c2nc(-c3ccc4c(c3)CC(F)(F)C4)cc(=O)n2c1 [Compound 822],–,–,< 0.1,A (A denotes >20-fold)
CC(=O)Oc1nc2ccc(-c3cc(=O)n4cc(C)cc([C@H](C)Nc5ccccc5C(=O)O)c4n3)cn2n1 [Compound 518],> 2,C (C denotes ≤5-fold),–,–
CCC(=O)Nc1ccc(C(=O)O)c(NC(C)c2cc(C)cn3c(=O)cc(N4CCOCC4)nc23)c1 (stereo not drawn) [Compound 791],–,–,> 2,C (C denotes ≤5-fold)
Cc1cc(C(C)Nc2ccccc2C(N)=O)c2nc(-c3ccc(F)c(C#N)c3)c(C)c(=O)n2c1 (stereo not drawn) [Compound 1092],–,A (A denotes >20-fold),0.1 to 0.5,–
Cc1cc([C@@H](C)Nc2ccccc2S(N)(=O)=O)c2nc([C@H]3CCCN(CC(F)F)C3)c(C)c(=O)n2c1 [Compound 1310],–,C (C denotes ≤5-fold),> 2,–
Cc1cc(C(C)Nc2ccccc2S(N)(=O)=O)c2nc(-c3cnc4c(c3)c(C)nn4C3CC3)c(C)c(=O)n2c1 (stereo not drawn) [Compound 990],–,–,0.1 to 0.5,A (A denotes >20-fold)
Cc1cc([C@H](C)Nc2ccccc2C(=O)O)c2nc(-c3ccc(C4CCOCC4)nc3)c(C)c(=O)n2c1 [Compound 1147],–,C (C denotes ≤5-fold),> 2,–
Cc1cc([C@@H](C)Nc2ccccc2S(N)(=O)=O)c2nc(-c3ccc(C4CCOCC4)nc3)c(C)c(=O)n2c1 [Compound 1294],–,B (B denotes 20-fold≥value>5-fold),0.5 to 2,–
Cc1cc(C(C)Nc2ccccc2S(N)(=O)=O)c2nc(-c3ccnc(C4CC4)c3)c(C)c(=O)n2c1 (stereo not drawn) [Compound 1096],–,A (A denotes >20-fold),< 0.1,–
Cc1cc(C(C)Nc2cc(F)ccc2C(=O)O)c2nc(-c3cccc(F)c3)c(C)c(=O)n2c1 (stereo not drawn) [Compound 1197],–,A (A denotes >20-fold),< 0.1,–
Cc1cc(C(C)Nc2cnncc2C(=O)O)c2nc(N3CCOCC3)cc(=O)n2c1 (stereo not drawn) [Compound 357],> 2,C (C denotes ≤5-fold),–,–
Cc1cc([C@H](C)Nc2ccccc2-c2ccnnc2)c2cc([C@H]3CCCOC3)c(C)c(=O)n2c1 [Compound 1406],–,A (A denotes >20-fold),–,–
Cc1cc([C@@H](C)Nc2ccccc2C2(O)COC2)c2nc(-c3cccc(F)c3)c(C)c(=O)n2c1 [Compound 1399],–,A (A denotes >20-fold),0.1 to 0.5,–
Cc1cc([C@@H](C)Nc2ccccc2C(=O)O)c2nc(-c3ccc(C4CN(C)C4)nc3)c(C)c(=O)n2c1 [Compound 1342],–,C (C denotes ≤5-fold),–,–
Cc1cc([C@H](C)Nc2ccccc2C(=O)O)c2nc(-c3ccc4c(c3)CC(F)(F)C4)cc(=O)n2c1 [Compound 823],–,–,> 2,C (C denotes ≤5-fold)
Cc1cc([C@H](C)Nc2ccccc2)c2nc(-c3cc(F)c4c(N)n[nH]c4c3)cc(=O)n2c1 [Compound 258],> 2,C (C denotes ≤5-fold),–,–
CNS(=O)(=O)c1ccccc1NC(C)c1cc(C)cn2c(=O)cc(N3Cc4ccccc4C3)nc12 (stereo not drawn) [Compound 835],–,–,0.1 to 0.5,A (A denotes >20-fold)
Cc1cc([C@H](C)Nc2ccccc2C(=O)O)c2nc(-c3cc4c(cc3C)CC(N)=N4)cc(=O)n2c1 [Compound 811],–,–,0.5 to 2,B (B denotes 20-fold≥value>5-fold)
